This assay deals with T1, human LPA1 (Homo sapiens, UniProt Q92633).
T1 construct: expressed in transfected cells; host or cells: Chinese hamster ovary (CHO) cells
In words: LPA1 functional antagonist assay (LPA-induced calcium flux). It counts as cell-based. Conditions: read-out: hLPA1 IC50. As for the experimental part: The effectiveness of compounds of the present invention as LPA1 inhibitors can be determined in an LPA1 functional antagonist assay as follows: Chinese hamster ovary cells overexpressing human LPA1 were plated overnight (15,000 cells/well) in poly-D-lysine coated 384-well microplates (Greiner bio-one, Cat #781946) in DMEM/F12 medium (Gibco, Cat #11039). Following overnight culture, cells were loaded with calcium indicator dye (AAT Bioquest Inc, Cat #34601) for 30 minutes at 37° C. The cells were then equilibrated to room temperature for 30 minutes before the assay. Test compounds solubilized in DMSO were transferred to 384 well non-binding surface plates (Corning, Cat #3575) using the Labcyte Echo acoustic dispense and diluted with assay buffer [1×HBSS with calcium/magnesium (Gibco Cat #14025-092), 20 mM HEPES (Gibco Cat #15630-080) and 0.1% fatty acid free BSA (Sigma Cat #A9205)] to a final concentration of 0.5% DMSO. Diluted compounds were added to the cells by FDSS6000 (Hamamatsu) at final concentrations ranging from 0.08 nM to 5 μM. and were then incubated for 20 min at room temperature at which time LPA (Avanti Polar Lipids Cat #857130C) was added at final concentrations of 10 nM to stimulate the cells. […] IC50 values were determined by fitting data to a 4-parameter logistic equation (GraphPad Prism, San Diego Calif.).

Setting [1] is: CHO cells overexpressing human LPA1, inhibition of calcium flux induced by 10 nM LPA.

The source of these data is patent publication US10576062B2, “Carbamoyloxymethyl triazole cyclohexyl acids as LPA antagonists” (Bristol-Myers Squibb Company, priority 2016, dated 2020).

Like-named read-outs stand apart in the source and are kept apart here.

T1 sequence (Q92633 whole entry): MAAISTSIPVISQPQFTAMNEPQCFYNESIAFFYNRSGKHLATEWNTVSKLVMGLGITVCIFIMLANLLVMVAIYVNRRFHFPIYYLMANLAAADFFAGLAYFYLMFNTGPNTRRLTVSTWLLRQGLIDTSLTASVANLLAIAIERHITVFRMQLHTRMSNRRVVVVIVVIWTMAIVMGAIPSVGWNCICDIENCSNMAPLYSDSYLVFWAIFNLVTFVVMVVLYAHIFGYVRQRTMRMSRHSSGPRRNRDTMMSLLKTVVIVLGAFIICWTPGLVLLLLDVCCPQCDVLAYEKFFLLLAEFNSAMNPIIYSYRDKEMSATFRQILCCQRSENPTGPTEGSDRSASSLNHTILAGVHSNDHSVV

The IC50 is the concentration needed to halve the response being measured. Consider `CN(C(=O)OCc1c(-c2ccc(O[C@H]3CCC[C@](F)(C(=O)O)C3)cn2)nnn1C)C1CCCC1` (racemic) [Example 89], for which the IC50 was 32 nM.

Regarding `Cc1nc(-c2nnn(C)c2COC(=O)N(C)CCC(C)(C)F)ccc1O[C@H]1CCC[C@H](C(=O)O)C1` [Example 187, (1S,3S)-3-((6-(5-((((3-fluoro-3-methylbutyl)(methyl)carbamoyl)oxy)methyl)-1-methyl-1H-1,2,3-triazol-4-yl)-2-methylpyridin-3-yl)oxy)cyclohexane-1-carboxylic acid], the IC50 (human LPA1) was 50 nM. In the case of `Cc1nc(-c2nnn(C)c2COC(=O)N(C)CC2(F)CCCC2)cnc1O[C@H]1CCC[C@H](C(=O)O)C1` [Example 234, (1S,3S)-3-((5-(5-(((((1-fluorocyclopentyl)methyl)(methyl)carbamoyl)oxy)methyl)-1-methyl-1H-1,2,3-triazol-4-yl)-3-methylpyrazin-2-yl)oxy)cyclohexane-1-carboxylic acid], under setting [1], the IC50 came to 72 nM. Consider `CN(C(=O)OCc1c(-c2ccc(O[C@H]3CCC[C@H](C(=O)O)C3)cc2)nnn1C)C1CCC1` [Example 73, (1S,3S)-3-(4-(5-(((cyclobutyl(methyl)carbamoyl)oxy)methyl)-1-methyl-1H-1,2,3-triazol-4-yl)phenoxy)cyclohexane-1-carboxylic acid], for which the IC50 was 62 nM.

For the compound `CCCN(C)C(=O)OCc1c(-c2ccc(O[C@H]3CCC[C@H](C(=O)O)C3)c(C#N)n2)nnn1C` [Example 270, (1S,3S)-3-((2-cyano-6-(1-methyl-5-(((methyl(propyl)carbamoyl)oxy)methyl)-1H-1,2,3-triazol-4-yl)pyridin-3-yl)oxy)cyclohexane-1-carboxylic acid], the IC50 under setting [1] came out at 11 nM.

In the case of `Cc1cc(-c2nnn(C)c2COC(=O)N(C)CC2CCC2)ccc1O[C@H]1CCC[C@H](C(=O)O)C1` [Example 37, (1S,3S)-3-(4-(5-((((cyclobutylmethyl)(methyl)carbamoyl)oxy)methyl)-1-methyl-1H-1,2,3-triazol-4-yl)-2-methylphenoxy)cyclohexane-1-carboxylic acid], the IC50 was found to be 14 nM. Regarding `CN(C(=O)OCc1c(-c2cnc(O[C@H]3CCC[C@H](C(=O)O)C3)c(C(F)(F)F)c2)nnn1C)C1CCC1` [Example 240, (1S,3S)-3-((5-(5-(((cyclobutyl(methyl)carbamoyl)oxy)methyl)-1-methyl-1H-1,2,3-triazol-4-yl)-3-(trifluoromethyl)pyridin-2-yl)oxy)cyclohexane-1-carboxylic acid], the IC50 under setting [1] was 1210 nM. Consider `Cc1nc(-c2nnn(C)c2COC(=O)N(C)CC(C)C)ccc1O[C@H]1CCC[C@H](C(=O)O)C1` [Example 116, (1S,3S)-3-((6-(5-(((isobutyl(methyl)carbamoyl)oxy)methyl)-1-methyl-1H-1,2,3-triazol-4-yl)-2-methylpyridin-3-yl)oxy)cyclohexane-1-carboxylic acid], for which the IC50 is 29 nM. Take `CCc1nc(-c2nnn(C)c2COC(=O)NCc2ccccc2)ccc1O[C@H]1CCC[C@H](C(=O)O)C1` [Example 198, (1S,3S)-3-((6-(5-(((benzylcarbamoyl)oxy)methyl)-1-methyl-1H-1,2,3-triazol-4-yl)-2-ethylpyridin-3-yl)oxy)cyclohexane-1-carboxylic acid]: the IC50 under setting [1] is 46 nM. Take `CCCN(C)C(=O)OCc1c(-c2ccc(O[C@H]3CCC[C@H](C(=O)O)C3)c(CC)n2)nnn1C` [Example 200, (1S,3S)-3-((2-ethyl-6-(1-methyl-5-(((methyl(propyl)carbamoyl)oxy)methyl)-1H-1,2,3-triazol-4-yl)pyridin-3-yl)oxy)cyclohexane-1-carboxylic acid]: the IC50 under setting [1] stood at 11 nM. Regarding `Cc1nc(-c2nnn(C)c2COC(=O)N2CCOCC2)ccc1O[C@H]1CCC[C@H](C(=O)O)C1` [Example 114, (1S,3S)-3-((2-methyl-6-(1-methyl-5-(((morpholine-4-carbonyl)oxy)methyl)-1H-1,2,3-triazol-4-yl)pyridin-3-yl)oxy)cyclohexane-1-carboxylic acid], the IC50 worked out at 643 nM.

For the compound `Cc1cc(-c2nnn(C)c2COC(=O)N(C)C2CCCC2)ccc1O[C@H]1CCC[C@H](C(=O)O)C1` [Example 41, (1S,3S)-3-(4-(5-(((cyclopentyl(methyl)carbamoyl)oxy)methyl)-1-methyl-1H-1,2,3-triazol-4-yl)-2-methylphenoxy)cyclohexane-1-carboxylic acid], the IC50 was 14 nM.

In the case of `CCC1CCCN1C(=O)OCc1c(-c2ccc(O[C@H]3CCC[C@H](C(=O)O)C3)c(C)n2)nnn1C` (mixture of isomers) [Example 152, (1S,3S)-3-((6-(5-(((2-ethylpyrrolidine-1-carbonyl)oxy)methyl)-1-methyl-1H-1,2,3-triazol-4-yl)-2-methylpyridin-3-yl)oxy)cyclohexane-1-carboxylic acid], the IC50 amounted to 157 nM. As to `CCC(F)CN(C)C(=O)OCc1c(-c2cnc(O[C@H]3CCC[C@H](C(=O)O)C3)c(C)n2)nnn1C` (mixture of isomers) [Example 254, (1S,3S)-3-((5-(5-((((2-fluorobutyl)(methyl)carbamoyl)oxy)methyl)-1-methyl-1H-1,2,3-triazol-4-yl)-3-methylpyrazin-2-yl)oxy)cyclohexane-1-carboxylic acid], the IC50 under setting [1] was 132 nM.

For `CCCCN(C)C(=O)OCc1c(-c2ccc(O[C@H]3CCC[C@H](C(=O)O)C3)c(C#N)n2)nnn1C` [Example 291, (1S,3S)-3-((6-(5-(((butyl(methyl)carbamoyl)oxy)methyl)-1-methyl-1H-1,2,3-triazol-4-yl)-2-cyanopyridin-3-yl)oxy)cyclohexane-1-carboxylic acid], the IC50 under setting [1] turned out to be 15 nM.

With `Cc1nc(-c2nnn(C)c2COC(=O)N(C)C(C)(C)CF)ccc1O[C@H]1CCC[C@H](C(=O)O)C1` [Example 178, (1S,3S)-3-((6-(5-((((1-fluoro-2-methylpropan-2-yl)(methyl)carbamoyl)oxy)methyl)-1-methyl-1H-1,2,3-triazol-4-yl)-2-methyl-pyridin-3-yl)oxy)cyclohexane-1-carboxylic acid], where the note is “human LPA1”, the half-inhibitory concentration (IC50) is 156 nM. `Cc1nc(-c2nnn(C)c2COC(=O)N2CCC2C)ccc1O[C@H]1CCC[C@H](C(=O)O)C1` (mixture of isomers) [Example 157, (1S,3S)-3-((2-methyl-6-(1-methyl-5-(((2-methylazetidine-1-carbonyl)oxy)methyl)-1H-1,2,3-triazol-4-yl)pyridine-3-yl)oxy)cyclohexane-1-carboxylic acid]: the IC50 turned out to be 529 nM.

For the compound `Cc1nc(-c2nnn(C)c2COC(=O)N(C)C2CC(C)(C)C2)ccc1O[C@H]1CCC[C@H](C(=O)O)C1` [Example 168, (1S,3S)-3-((6-(5-((((3,3-dimethyl-cyclobutyl)(methyl)carbamoyl)oxy)methyl)-1-methyl-1H-1,2,3-triazol-4-yl)-2-methylpyridin-3-yl)oxy)cyclohexane-1-carboxylic acid], the IC50 (human LPA1) is 29 nM. In the case of `CC(C1CCC1)N(C)C(=O)OCc1c(-c2ccc(O[C@H]3CCC[C@H](C(=O)O)C3)cc2)nnn1C` (single isomer, unassigned) [Example 48], the IC50 is 8 nM. With `Cc1nc(-c2nnn(C)c2COC(=O)N(C)Cc2ncccn2)ccc1O[C@H]1CCC[C@H](C(=O)O)C1` [Example 121, (1S,3S)-3-((2-methyl-6-(1-methyl-5-(((methyl(pyrimidin-2-ylmethyl)carbamoyl)oxy)methyl)-1H-1,2,3-triazol-4-yl)pyridin-3-yl)oxy)cyclohexane-1-carboxylic acid], the IC50 came out at 1090 nM.

Regarding `CN(C(=O)OCc1c(-c2cnc(O[C@H]3CCC[C@H](C(=O)O)C3)c(C(F)(F)F)c2)nnn1C)C1CCCC1` [Example 238, (1S,3S)-3-((5-(5-(((cyclopentyl(methyl)carbamoyl)oxy)methyl)-1-methyl-1H-1,2,3-triazol-4-yl)-3-(trifluoromethyl)pyridin-2-yl)oxy)cyclohexane-1-carboxylic acid], the IC50 under setting [1] worked out at 174 nM. As for `Cc1nc(-c2nnn(C)c2COC(=O)N2CCC3(CCC3)C2)ccc1O[C@H]1CCC[C@H](C(=O)O)C1` [Example 135, (1S,3S)-3-((6-(5-(((6-azaspiro[3.4]octane-6-carbonyl)oxy)methyl)-1-methyl-1H-1,2,3-triazol-4-yl)-2-methylpyridin-3-yl)oxy)cyclohexane-1-carboxylic acid], the IC50 came out at 47 nM. As for `Cc1nc(-c2nnn(C)c2COC(=O)N(C)CC2(F)CCC2)ccc1O[C@H]1CCC[C@H](C(=O)O)C1` [Example 189, (1S,3S)-3-((6-(5-(((((1-fluorocyclobutyl)methyl)(methyl)carbamoyl)oxy)methyl)-1-methyl-1H-1,2,3-triazol-4-yl)-2-methylpyridin-3-yl)oxy)cyclohexane-1-carboxylic acid], where the note is “human LPA1”, the half-maximal inhibitory concentration (IC50) is 120 nM. In the case of `Cc1nc(-c2nnn(C)c2COC(=O)N(C)CC2CCOCC2)ccc1O[C@H]1CCC[C@H](C(=O)O)C1` [Example 117, (1S,3S)-3-((2-methyl-6-(1-methyl-5-(((methyl((tetrahydro-2H-pyran-4-yl)methyl)carbamoyl)oxy)methyl)-1H-1,2,3-triazol-4-yl)pyridin-3-yl)oxy)cyclohexane-1-carboxylic acid], the IC50 came to 17 nM.
